Reference: the Kinase Knowledgebase extract (Sharma et al. 2016)
Several values for one entry are separate records, joined by “and”; a condition that tells them apart may be missing. Identical values can stand only once.

Tests used:
[1] = target: PIK3CB (Human) (UniProt P42338); test: Cell-Based Assay; settings: rat-1
[2] = target: PIK3CD (Human) (UniProt O00329); test: Cell-Based Assay; settings: rat-1
[3] = target: PIK3CA (human) (UniProt P42336); test: Enzyme Assay
[4] = target: PIK3CB (Human) (UniProt P42338); test: Enzyme Assay
[5] = target: PIK3CD (Human) (UniProt O00329); test: Enzyme Assay
[6] = target: PIK3CG (human) (UniProt P48736); test: Enzyme Assay
PIK3CG (human), sequence (P48736 whole entry, looked up): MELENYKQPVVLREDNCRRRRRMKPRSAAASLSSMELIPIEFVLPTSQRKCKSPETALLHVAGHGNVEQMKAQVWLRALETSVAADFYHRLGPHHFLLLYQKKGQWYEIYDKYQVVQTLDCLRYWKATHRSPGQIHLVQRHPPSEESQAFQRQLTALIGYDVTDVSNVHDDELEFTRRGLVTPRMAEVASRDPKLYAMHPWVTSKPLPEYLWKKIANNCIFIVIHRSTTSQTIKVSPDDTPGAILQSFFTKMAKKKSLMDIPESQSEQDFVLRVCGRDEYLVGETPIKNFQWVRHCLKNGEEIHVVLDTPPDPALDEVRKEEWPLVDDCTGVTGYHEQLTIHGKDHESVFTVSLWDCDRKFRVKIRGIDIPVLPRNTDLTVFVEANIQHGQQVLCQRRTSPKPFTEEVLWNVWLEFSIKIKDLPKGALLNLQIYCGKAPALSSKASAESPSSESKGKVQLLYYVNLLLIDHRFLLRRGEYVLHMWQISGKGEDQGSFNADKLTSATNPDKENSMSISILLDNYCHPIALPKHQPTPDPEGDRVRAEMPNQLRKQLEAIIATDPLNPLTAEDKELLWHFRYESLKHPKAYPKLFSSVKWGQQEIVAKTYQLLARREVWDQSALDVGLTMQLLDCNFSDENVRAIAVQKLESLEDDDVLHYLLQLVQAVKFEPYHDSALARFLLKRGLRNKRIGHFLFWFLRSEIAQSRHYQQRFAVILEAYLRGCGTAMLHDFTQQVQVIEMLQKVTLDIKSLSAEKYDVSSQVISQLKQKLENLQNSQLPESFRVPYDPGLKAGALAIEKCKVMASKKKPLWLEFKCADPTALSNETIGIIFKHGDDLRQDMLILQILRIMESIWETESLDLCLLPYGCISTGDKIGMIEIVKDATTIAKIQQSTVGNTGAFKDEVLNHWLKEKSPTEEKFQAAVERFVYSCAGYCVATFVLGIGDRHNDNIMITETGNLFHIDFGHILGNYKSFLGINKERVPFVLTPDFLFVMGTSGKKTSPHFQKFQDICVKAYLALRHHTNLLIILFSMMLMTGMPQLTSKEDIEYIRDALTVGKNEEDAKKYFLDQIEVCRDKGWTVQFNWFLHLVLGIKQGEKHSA

[7] = target: PIK3CA (human) (UniProt P42336); test: Cell-Based Assay; settings: rat-1
[8] = target: PIK3CA (human), P42336 [H1047R]; test: Cell-Based Assay; settings: detroit562
PIK3CA (human), P42336 [H1047R], sequence (P42336 whole entry H1047R, looked up): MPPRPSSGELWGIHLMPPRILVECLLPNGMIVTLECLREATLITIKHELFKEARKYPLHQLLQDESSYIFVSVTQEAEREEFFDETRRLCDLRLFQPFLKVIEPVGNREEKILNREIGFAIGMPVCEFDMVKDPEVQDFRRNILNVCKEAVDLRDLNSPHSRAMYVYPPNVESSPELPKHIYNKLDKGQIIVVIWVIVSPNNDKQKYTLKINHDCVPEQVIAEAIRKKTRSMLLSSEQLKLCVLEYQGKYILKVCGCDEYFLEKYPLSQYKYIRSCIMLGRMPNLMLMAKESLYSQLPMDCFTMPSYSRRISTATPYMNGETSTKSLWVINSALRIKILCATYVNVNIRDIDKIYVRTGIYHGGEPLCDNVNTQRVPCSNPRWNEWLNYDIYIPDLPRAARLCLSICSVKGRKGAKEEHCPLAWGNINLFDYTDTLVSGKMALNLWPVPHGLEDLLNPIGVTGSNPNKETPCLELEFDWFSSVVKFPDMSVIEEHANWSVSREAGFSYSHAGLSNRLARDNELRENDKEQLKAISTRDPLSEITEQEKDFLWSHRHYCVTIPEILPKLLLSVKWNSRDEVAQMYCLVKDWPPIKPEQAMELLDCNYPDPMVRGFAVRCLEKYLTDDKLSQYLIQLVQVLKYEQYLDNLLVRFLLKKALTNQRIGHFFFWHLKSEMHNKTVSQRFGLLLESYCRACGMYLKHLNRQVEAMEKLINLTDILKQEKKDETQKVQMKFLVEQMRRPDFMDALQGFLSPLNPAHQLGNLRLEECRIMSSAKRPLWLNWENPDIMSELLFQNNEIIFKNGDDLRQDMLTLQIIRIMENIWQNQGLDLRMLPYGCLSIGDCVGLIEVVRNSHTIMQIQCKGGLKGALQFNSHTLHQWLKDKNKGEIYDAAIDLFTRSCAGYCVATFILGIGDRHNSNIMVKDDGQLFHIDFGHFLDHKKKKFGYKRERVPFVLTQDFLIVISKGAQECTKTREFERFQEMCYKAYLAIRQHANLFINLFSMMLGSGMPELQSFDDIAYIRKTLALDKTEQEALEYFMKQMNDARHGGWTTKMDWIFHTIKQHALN

PIK3CA (human), sequence (P42336 whole entry, looked up): as the sequence (P42336 whole entry H1047R, looked up) above, with R1047H counted along it
PIK3CD (Human), sequence (O00329 whole entry, looked up): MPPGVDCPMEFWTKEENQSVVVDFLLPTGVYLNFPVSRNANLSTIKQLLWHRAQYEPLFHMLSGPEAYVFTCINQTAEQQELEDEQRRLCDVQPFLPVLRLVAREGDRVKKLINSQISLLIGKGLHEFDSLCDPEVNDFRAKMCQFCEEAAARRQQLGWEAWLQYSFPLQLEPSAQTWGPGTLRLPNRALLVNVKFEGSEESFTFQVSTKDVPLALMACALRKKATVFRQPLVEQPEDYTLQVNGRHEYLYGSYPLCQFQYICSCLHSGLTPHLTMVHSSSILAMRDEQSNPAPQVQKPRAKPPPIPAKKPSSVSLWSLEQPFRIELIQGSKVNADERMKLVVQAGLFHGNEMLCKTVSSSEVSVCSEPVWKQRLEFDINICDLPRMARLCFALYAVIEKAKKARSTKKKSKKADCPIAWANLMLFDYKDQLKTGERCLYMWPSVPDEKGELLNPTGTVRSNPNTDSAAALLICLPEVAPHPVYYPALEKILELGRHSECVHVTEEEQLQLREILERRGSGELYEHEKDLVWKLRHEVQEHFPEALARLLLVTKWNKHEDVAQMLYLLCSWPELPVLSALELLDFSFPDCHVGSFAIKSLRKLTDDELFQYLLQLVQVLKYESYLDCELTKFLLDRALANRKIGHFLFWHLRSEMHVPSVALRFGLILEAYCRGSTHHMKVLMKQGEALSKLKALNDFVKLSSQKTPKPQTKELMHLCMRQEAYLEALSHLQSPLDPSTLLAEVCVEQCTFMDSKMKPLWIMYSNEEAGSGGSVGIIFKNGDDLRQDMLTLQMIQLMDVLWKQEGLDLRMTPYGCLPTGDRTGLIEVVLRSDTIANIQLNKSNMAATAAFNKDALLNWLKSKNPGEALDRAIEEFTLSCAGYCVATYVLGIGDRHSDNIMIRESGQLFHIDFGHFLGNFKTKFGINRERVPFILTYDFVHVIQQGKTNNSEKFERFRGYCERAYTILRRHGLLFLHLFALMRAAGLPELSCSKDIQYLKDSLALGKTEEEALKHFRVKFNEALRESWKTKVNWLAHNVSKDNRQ
PIK3CB (Human), sequence (P42338 whole entry, looked up): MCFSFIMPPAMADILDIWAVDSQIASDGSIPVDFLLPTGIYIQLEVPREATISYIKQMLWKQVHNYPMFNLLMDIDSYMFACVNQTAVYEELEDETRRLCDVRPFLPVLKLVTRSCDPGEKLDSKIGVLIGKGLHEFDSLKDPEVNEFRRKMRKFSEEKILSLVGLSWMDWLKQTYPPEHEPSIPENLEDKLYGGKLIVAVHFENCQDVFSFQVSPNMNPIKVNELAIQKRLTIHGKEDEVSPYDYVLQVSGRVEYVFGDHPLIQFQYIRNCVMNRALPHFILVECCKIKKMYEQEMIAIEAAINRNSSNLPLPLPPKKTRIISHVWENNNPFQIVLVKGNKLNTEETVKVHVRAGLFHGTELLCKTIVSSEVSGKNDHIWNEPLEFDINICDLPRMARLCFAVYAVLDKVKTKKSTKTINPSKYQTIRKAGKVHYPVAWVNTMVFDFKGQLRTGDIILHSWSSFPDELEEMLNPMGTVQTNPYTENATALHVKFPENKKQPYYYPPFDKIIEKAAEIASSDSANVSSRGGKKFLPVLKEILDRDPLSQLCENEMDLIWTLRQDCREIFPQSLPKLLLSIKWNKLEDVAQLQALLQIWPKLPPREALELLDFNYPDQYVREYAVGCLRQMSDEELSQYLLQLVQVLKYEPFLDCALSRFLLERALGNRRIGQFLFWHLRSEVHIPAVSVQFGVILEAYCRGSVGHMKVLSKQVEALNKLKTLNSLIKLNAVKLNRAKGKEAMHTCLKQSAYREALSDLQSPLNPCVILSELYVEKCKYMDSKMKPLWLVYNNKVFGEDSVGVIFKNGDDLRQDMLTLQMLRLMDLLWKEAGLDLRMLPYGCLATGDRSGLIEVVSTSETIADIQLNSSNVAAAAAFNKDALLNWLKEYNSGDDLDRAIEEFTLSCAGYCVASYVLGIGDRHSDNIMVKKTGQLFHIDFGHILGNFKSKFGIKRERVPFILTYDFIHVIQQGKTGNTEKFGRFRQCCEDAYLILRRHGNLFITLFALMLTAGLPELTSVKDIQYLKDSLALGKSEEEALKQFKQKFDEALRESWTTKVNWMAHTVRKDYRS

IC50 [1] | IC50 [2] | IC50 [3] | IC50 [4] | IC50 [5] | IC50 [6] | IC50 [7] | IC50 [8] | SMILES
< 3 nM | < 3 nM |  |  |  |  |  |  | Nc1ncc(-c2cc(N3C(=O)O[C@@H](c4ccc(OCCO)cc4)[C@@H]3CO)nc(N3CCOCC3)n2)c(C(F)(F)F)n1
 |  |  |  |  |  |  | 440 nM and 598 nM | C[C@H]1[C@H](c2nccs2)OC(=O)N1c1cc(-c2cnc(N)nc2C(F)(F)F)nc(N2CCOCC2)n1
1580 nM | 1470 nM | 91 nM | 236 nM | 1980 nM | 7350 nM | 606 nM | 4550 nM and 2810 nM | Nc1cc(C(F)(F)F)c(-c2cc(N3CCN(c4ccccc4)C3=O)nc(N3CCOCC3)n2)cn1
 | 139 nM |  |  | 24 nM | 315 nM |  |  | Nc1ncc(-c2cc(N3CCOCC3)nc(N3CCOCC3)n2)c(C(F)(F)F)n1
 |  |  | 96 nM |  | 5800 nM |  |  | CC[C@H]1[C@H](c2ccc(OC)cc2)OC(=O)N1c1cc(-c2cnc(N)nc2C(F)(F)F)nc(N2CCOCC2)n1
 |  |  |  |  | 7000 nM |  |  | CC[C@@H]1[C@@H](c2cccc(OC)c2)OC(=O)N1c1cc(-c2cnc(N)nc2C(F)(F)F)nc(N2CCOCC2)n1
5310 nM | 6540 nM | 327 nM | 1070 nM | 1220 nM | 4460 nM | 1730 nM | 3300 nM | Nc1cc(C(F)(F)F)c(-c2cc(N3CCC(=O)CC3)nc(N3CCOCC3)n2)cn1
1540 nM | 1040 nM | 94 nM | 237 nM | 848 nM | 3360 nM | 369 nM | 4410 nM and 3080 nM | Nc1cc(C(F)(F)F)c(-c2cc(N3CCCCC3=O)nc(N3CCOCC3)n2)cn1

SMILES | IC50 [1] | IC50 [2] | IC50 [3] | IC50 [4] | IC50 [5] | IC50 [6] | IC50 [7] | IC50 [8]
Nc1ncc(-c2cc(N3CCOC(c4ccccc4)C3)nc(N3CCOCC3)n2)c(C(F)(F)F)n1 (configuration not stated) | > 10000 nM | 105 nM | 15 nM | 27 nM | 110 nM | 170 nM | > 10000 nM | 2390 nM and 1370 nM
COCCOc1ccc([C@@H]2OC(=O)N(c3cc(-c4cnc(N)nc4C(F)(F)F)nc(N4CCOCC4)n3)[C@H]2CO)cc1 |  | 4 nM |  |  |  |  |  | 
